Assay results taken from patent publication US8296071B2, “Methods for uniformly treating biological samples with electromagnetic radiation” (Terumo BCT Biotechnologies, LLC, priority 2004, dated 2012).

What was measured:
[1] = system: Bovine viral diarrhea virus (BVDV); assay: Pathogen reduction of BVDV in platelet and plasma-containing fluids (photosensitizer + electromagnetic radiation), TCID50; type: cell-based; settings: fixed net radiant energy 3 Joules cm^−2
From the text: FIG. 4A provides a bar graph showing the average reduction of BVDV pathogen for fluid samples having two different volumes held in containers having nontransmissive labels and exposed to a fixed net radiant energy. […] FIG. 4B provides a bar graph showing the average reduction of BVDV pathogen for fluid samples having two different volumes held in containers not having nontransmissive labels and exposed to a fixed net radiant energy equal to 3 Joules cm^−2. […] The error bars shown in FIGS. 4A and 4B correspond to standard deviations (1σ) corresponding to six independent measurements at each volume.

[2] = system: porcine parvovirus virus (PPV); assay: Pathogen reduction of PPV in platelet and plasma-containing samples at two agitation rates; settings: net radiant energy by Equation V
Protocol: Platelet and plasma-containing fluid samples having volumes selected over the range of about 200 ml to about 400 ml were illuminated in 1 liter fixed volume, partially transparent containers.
Electromagnetic radiation was provided by two banks of six mercury vapor fluorescent lamps (model number XG25T8E; distributed by Ushio Nichia NP-803 phosphor) positioned above and below the fluid containers. This optical geometry defines two photoreactive layers having thicknesses equal to approximately 1 millimeter corresponding to the top and bottom illuminated surfaces of the fluid. […]
Bovine viral diarrhea virus (BVDV), porcine parvovirus virus (PPV), hepatitis A virus (HAV) and S. aureus bacteria were assayed before and after illumination using TCID50 or plating methods to provide quantitative measurements of the extent of pathogen reduction achieved.
The effect of agitation rate on the extent of pathogen reduction achieved upon treatment of fluids with electromagnetic radiation was also studied by varying the agitation rate provided to the sample container during illumination. Platelet and plasma-containing samples were exposed to net radiant energies calculated using Equation V. Samples were mixed during illumination using two different agitation rates: 120 cycles per minute and 20 cycles per minute.

7,8-dimethyl-10-ribityl isoalloxazine
average reduction of BVDV pathogen ([1]; about 230 ml sample, containers with nontransmissive labels): about 2.0 log
average reduction of BVDV pathogen ([1]; about 230 ml sample, containers without nontransmissive labels): about 2.3 log
average reduction of BVDV pathogen ([1]; about 280 ml sample, containers with nontransmissive labels): about 1.4 log
average reduction of BVDV pathogen ([1]; about 280 ml sample, containers without nontransmissive labels): about 1.9 log
log decrease in the biological activity of PPV pathogens ([2]; agitation rate 20 cycles per minute): 0.72 log
log decrease in the biological activity of PPV pathogens ([2]; agitation rate 120 cycles per minute): 4.65 log
